Experimental data published in US10981932B2, “Macrocyclic indole derivatives” (Bayer Aktiengesellschaft, priority 2016, dated 2021).
Counter-ions that a name gives are not always drawn. Like-named read-outs stand apart in the source and are kept apart here.

Assays:
[1] = system: A2780; test: Anti-proliferative effect (CellTiter-Glo, 72 h), A2780; assay type: cell-based; conditions: A2780 cells, median, read-out: IC50 antiproliferation assay A2780 [M] (median)
Procedure, shortened: (§1)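 After seeding, one plate is read right away by CellTiter-Glo luminescence to fix time zero. The treated plates stay at 37 °C in humidified air for 72 h and are then measured with the same reagent and 10 min incubation.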

[2] = system: SUDHL10; test: Induction of cytotoxicity (CellTiter-Glo, 5 h), SUDHL10
[3] = system: SUDHL10; test: Anti-proliferative effect (CellTiter-Glo, 72 h), SUDHL10; assay type: cell-based; conditions: SUDHL10 cells, antiproliferation, median, read-out: Antiproli SUDHL10 [M] (median)
Procedure, shortened: as §1

[4] = system: SUDHL5; test: Induction of cytotoxicity (CellTiter-Glo, 5 h), SUDHL5
[5] = system: SUDHL10; test: Induction of caspase-3/7 activity (Caspase-Glo 3/7), SUDHL10; assay type: cell-based; conditions: caspase-3/7 induction, SUDHL10 cells, 3 h treatment, median
Procedure, shortened: (§2)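 Apoptosis induction measured as caspase-3/7 activity (Caspase-Glo 3/7) in DLBCL lines after 3 h treatment at 37 °C; EC50 derived relative to the reference compound's maximal induction, with C0 fixed at 1.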

[6] = biological target: MCL-1 (Homo sapiens, UniProt Q07820); test: Protein-protein interaction assay MCL-1/Noxa BH3 peptide (MCL-1 assay), TR-FRET; assay type: binding; conditions: MBP-MCL-1 / Noxa BH3-derived peptide, median
Procedure, shortened: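 Inhibition values were normalized between DMSO controls with all reagents and controls lacking MCL-1. The binding competition used 1 nM MBP-MCL-1 in pH 7 Tris buffer containing 50 mM KF and 100 mM NaCl, with a 10 min compound preincubation at 22 °C.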

[7] = system: SUDHL5; test: Anti-proliferative effect (CellTiter-Glo, 72 h), SUDHL5; assay type: cell-based; conditions: SUDHL5 cells, antiproliferation, median, read-out: Antiproli SUDHL5 [M] (median)
Procedure, shortened: as §1

[8] = system: SUDHL5; test: Induction of caspase-3/7 activity (Caspase-Glo 3/7), SUDHL5; assay type: cell-based; conditions: caspase-3/7 induction, SUDHL5 cells, 3 h treatment, median
Procedure, shortened: as §2

[9] = read-out: Cytotox SUDHL10 [M] (median), SUDHL10 cells, cytotoxicity induction, CellTiter-Glo, 5 h, median
[10] = read-out: Cytotox SUDHL5 [M] (median), SUDHL5 cells, cytotoxicity induction, CellTiter-Glo, 5 h, median
[11] = Homo sapiens, SU-DHL10, 5 h, read-out: Cytotox SUDHL10 [M] (median), SUDHL10 cells, cytotoxicity induction, CellTiter-Glo, 5 h, median
[12] = Homo sapiens, SU-DHL10, 72 h, 72 h
[13] = Homo sapiens, SU-DHL-5, 5 h, read-out: Cytotox SUDHL5 [M] (median), SUDHL5 cells, cytotoxicity induction, CellTiter-Glo, 5 h, median
[14] = Homo sapiens, SU-DHL-5, 72 h, 72 h
[15] = read-out: Cytotox SUDHL10 [M] (median), SUDHL10 cells, cytotoxicity induction, CellTiter-Glo, 5 h incubation, median
[16] = read-out: Cytotox SUDHL5 [M] (median), SUDHL5 cells, cytotoxicity induction, CellTiter-Glo, 5 h incubation, median
[17] = Homo sapiens, SU-DHL10, 5 h, read-out: Cytotox SUDHL10 [M] (median), SUDHL10 cells, cytotoxicity induction, CellTiter-Glo, 5 h incubation, median
[18] = Homo sapiens, SU-DHL10, 72 h, 72 h incubation
[19] = Homo sapiens, SU-DHL-5, 5 h, read-out: Cytotox SUDHL5 [M] (median), SUDHL5 cells, cytotoxicity induction, CellTiter-Glo, 5 h incubation, median
[20] = Homo sapiens, SU-DHL-5, 72 h, 72 h incubation

Sequence of MCL-1 (Q07820 whole entry): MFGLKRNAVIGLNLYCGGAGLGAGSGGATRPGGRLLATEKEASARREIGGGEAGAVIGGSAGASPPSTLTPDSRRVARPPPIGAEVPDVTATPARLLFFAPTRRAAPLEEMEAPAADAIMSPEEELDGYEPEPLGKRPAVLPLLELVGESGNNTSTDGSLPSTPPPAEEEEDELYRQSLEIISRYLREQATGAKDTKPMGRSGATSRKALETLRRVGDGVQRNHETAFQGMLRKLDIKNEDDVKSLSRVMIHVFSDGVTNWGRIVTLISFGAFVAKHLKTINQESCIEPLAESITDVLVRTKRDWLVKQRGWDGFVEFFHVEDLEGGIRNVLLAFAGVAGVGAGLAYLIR

| SMILES | IC50 [1] [M] | EC50 [5] [µM] | IC50 [6] [µM] | EC50 [8] [µM] | IC50 ([1]; Homo sapiens, A2780, 72 h) [M] | IC50 [3, 12] [M] | EC50 ([5]; Homo sapiens, SU-DHL10, 3 h) [µM] | IC50 [7, 14] [M] | EC50 ([8]; Homo sapiens, SU-DHL-5, 3 h) [µM] | IC50 [2, 11] [M] | IC50 [4, 13] [M] | other results |
| --- | --- | --- | --- | --- | --- | --- | --- | --- | --- | --- | --- | --- |
| CC(=O)NCc1nn(C)c2c1-c1cccc3c(CCCOc4cccc5ccccc45)c(C(=O)O)n(c13)CCCCOC2 (single isomer, unassigned; enantiomer 2) [Example 341, 3-[(acetylamino)methyl]-1-methyl-7-[3-(naphthalen-1-yloxy)propyl]-1,10,11,12,13,15-hexahydropyrazolo[4′3′:9,10][1,6]oxazacycloundecino[8,7,6-hi]indole-cararboxylic Acid (Enantiomer 2)] | > 3.3e-05 | > 33 | 0.651 | > 33 |  |  |  |  |  |  |  | IC50 [2, 9]: > 3.3e-05 M; IC50 ([3]; 72 h): > 3.3e-05 M; IC50 [4, 10]: 2.64e-05 M; IC50 ([7]; 72 h): 6.48e-06 M |
| Cc1ccc2c(C(C)CCOc3cccc4ccccc34)c(C(=O)O)n3c2c1-c1c(C)nn(C)c1COCCCC3 (single isomer, unassigned) [Example 258, 1,3,4-trimethyl-7-[4-(naphthalen-1-yloxy)butan-2-yl]-1,10,11,12,13,15-hexahydropyrazolo[4′,3′:9,10][1,6]oxazacycloundecino[8,7,6-hi]indole-8-carboxylic Acid] | 2.3e-05 | > 33 | 12 | > 33 |  |  |  |  |  |  |  | IC50 [2, 15]: > 3.3e-05 M; IC50 ([3]; 72 h incubation): 1.16e-05 M; IC50 [4, 16]: > 3.3e-05 M; IC50 ([7]; 72 h incubation): 1.92e-05 M |
| Cc1cc(OCCCc2c(C(=O)O)n3c4c(cccc24)-c2c(C)nn(C)c2COCCCC3)cc(C)c1Cl (single isomer, unassigned; enantiomer 2) [Example 011, 7-[3-(4-chloro-3,5-dimethylphenoxy)propyl]-1,3-dimethyl-1,10,11,12,13,15-hexahydropyrazolo[4′,3′:9,10][1,6]oxazacycloundecino[8,7,6-hi]indole-8-carboxylic Acid-N-ethylethanamine Salt (Enantiomer 2)] | 1.58e-05 | > 33 | 0.162 | > 33 |  |  |  |  |  |  |  | IC50 [2, 15]: > 3.3e-05 M; IC50 ([3]; 72 h incubation): 1.18e-05 M; IC50 [4, 16]: > 3.3e-05 M; IC50 ([7]; 72 h incubation): 2.02e-05 M |
| Cc1nn(CC(F)(F)F)c2c1-c1cccc3c(CCCOc4cccc5c4CCCC5)c(C(=O)O)n(c13)CCCCOC2 (racemic) [Example 161, (rac)-3-methyl-7-[3-(5,6,7,8-tetrahydronaphthalen-1-yloxy)propyl]1-(2,2,2-trifluoroethyl)-1,10,11,12,13,15-hexahydropyrazolo[4′,3′:9,10][1,6]oxazacycloundecino[8,7,6-hi]indole-8-carboxylic Acid] |  |  | 0.0521 |  | 1.62e-05 |  | > 33 |  | 15 |  |  | IC50 [2, 17]: > 3.3e-05 M; IC50 [3, 18]: 1.26e-05 M; IC50 [4, 19]: 1.06e-05 M; IC50 [7, 20]: 1.36e-05 M |

Now from value to molecule, other results behind:

| IC50 [1] [M] | EC50 [5] [µM] | IC50 [6] [µM] | EC50 [8] [µM] | IC50 ([1]; Homo sapiens, A2780, 72 h) [M] | IC50 [3, 12] [M] | EC50 ([5]; Homo sapiens, SU-DHL10, 3 h) [µM] | IC50 [7, 14] [M] | EC50 ([8]; Homo sapiens, SU-DHL-5, 3 h) [µM] | SMILES | IC50 [2, 11] [M] | IC50 [4, 13] [M] | other results |
| --- | --- | --- | --- | --- | --- | --- | --- | --- | --- | --- | --- | --- |
| > 3.3e-05 | > 33 | 0.153 | > 33 |  |  |  |  |  | Cn1nc(CN2CCCC2=O)c2c1COCCCCn1c(C(=O)O)c(CCCOc3cccc4ccccc34)c3cccc-2c31 (single isomer, unassigned; enantiomer 1) [Example 330, 1-methyl-7-[3-(naphthalen-1-yloxy)propyl]-3-[(2-oxopyrrolidin-1-yl)methyl]-1,10,11,12,13,15-hexahydropyrazolo[4′,3′:9,10][1,6]oxazacycloundecino[8,7,6-hi]indole-8-carboxylic Acid (Enantiomer 1)] |  |  | IC50 [2, 9]: > 3.3e-05 M; IC50 ([3]; 72 h): 2.49e-05 M; IC50 [4, 10]: > 3.3e-05 M; IC50 ([7]; 72 h): > 3.3e-05 M |
|  |  | 0.18 |  | 2.35e-05 | 2.24e-05 | > 33 | 1.93e-05 | 27.2 | Cn1nc(CN2CCCC2)c2c1COCCCCn1c(C(=O)O)c(CCCOc3cccc4ccccc34)c3cccc-2c31 (racemic) [Example 335, (rac)-1-methyl-7-[3-(naphthalen-1-yloxy)propyl]-3-(pyrrolidin-1-ylmethyl)-1,10,11,12,13,15-hexahydropyrazolo[4′3′:9,10][1,6]oxazacycloundecino[8,7,6-hi]indole-8-carboxylic Acid] | 2.77e-05 | 2.57e-05 |  |
|  | > 33 | 0.027 |  | 2.46e-05 | 1.62e-05 | 32.1 | 1.59e-05 | > 33 | CN1CCCn2c(C(=O)O)c(CCCOc3cccc4ccccc34)c3cccc(c32)-c2c(nn(C)c2C(F)(F)F)C1 (racemic) [Example 324, (rac)-7,10-dimethyl-1-[3-(naphthalen-1-yloxy)propyl]-11-(trifluoromethyl)-4,5,6,7,8,10-hexahydropyrazolo[3′,4′:7,8][1,5]diazecino[9,10,1-hi]indole-2-carboxylic Acid] | 2.68e-05 | 2.92e-05 | IC50 [2, 9]: > 3.3e-05 M |
|  |  | 0.00694 |  | 2.35e-05 |  | > 33 |  | 13.5 | CCn1nc(C2CC2)c2c1COCCCCn1c(C(=O)O)c(CCCOc3cccc4ccccc34)c3cccc-2c31 (racemic) [Example 088, (rac)-3-Cyclopropyl-1-ethyl-7-[3-(naphthalen-1-yloxy)propyl]-1,10,11,12,13,15-hexahydropyrazolo[4′,3′:9,10][1,6]oxazacycloundecino[8,7,6-hi]indole-8-carboxylic Acid] |  |  | IC50 [2, 17]: > 3.3e-05 M; IC50 [3, 18]: 2.67e-05 M; IC50 [4, 19]: 1.1e-05 M; IC50 [7, 20]: 1.76e-05 M |
|  |  | 3 |  | > 3.3e-05 | > 3.3e-05 | > 33 | > 3.3e-05 | > 33 | Cn1nc(CN2CCCC2=O)c2c1COCCCCn1c(C(=O)O)c(CCCOc3cccc4ccccc34)c3cccc-2c31 (single isomer, unassigned; enantiomer 2) [Example 329, 1-methyl-7-[3-(naphthalen-1-yloxy)propyl]-3-[(2-oxopyrrolidin-1-yl)methyl]-1,10,11,12,13,15-hexahydropyrazolo[4′,3′:9,10][1,6]oxazacycloundecino[8,7,6-hi]indole-8-carboxylic Acid (Enantiomer 2)] | > 3.3e-05 | > 3.3e-05 |  |
|  |  | 0.0133 |  | > 3.3e-05 |  | > 33 |  | 27.5 | Cn1nc(CCN2CCOCC2)c2c1COCCCCn1c(C(=O)O)c(CCCOc3cccc4ccccc34)c3cccc-2c31 (single isomer, unassigned; enantiomer 1) [Example 151, 1-methyl-3-[2-(morpholin-4-yl)ethyl]-7-[3-(naphthalen-1-yloxy)propyl]-1,10,11,12,13,15-hexahydropyrazolo[4′,3′:9,10][1,6]oxazacycloundecino[8,7,6-hi]indole-8-carboxylic acid-N-ethylethanamine Salt (Enantiomer 1)] |  |  | IC50 [2, 17]: > 3.3e-05 M; IC50 [3, 18]: 2.01e-05 M; IC50 [4, 19]: 1.91e-05 M; IC50 ([7]; 72 h incubation): > 3.3e-06 M |
|  |  | 0.0198 |  | > 3.3e-05 | 1.44e-05 | > 33 | 2.12e-05 | 32.6 | CN1CCCn2c(C(=O)O)c(CCCOc3cccc4ccccc34)c3cccc(c32)-c2c(nn3c2OCCC3)C1 (racemic) [Example 360, (rac)-7-methyl-1-[3-(naphthalen-1-yloxy)propyl]-5,6,7,8,12,13-hexahydro-4H,11H-[1,3]oxazino[3″,2″:1′,5′]pyrazolo[3′,4′:7,8][1,5]diazecino[9,10,1-hi]indole-2-carboxylic Acid] | > 3.3e-05 | > 3.3e-05 |  |
